# ChEMBL document CHEMBL3232998, “Spiromastixones A-O, antibacterial chlorodepsidones from a deep-sea-derived Spiromastix sp. fungus” (J Nat Prod, 2014)
# Tested on: Staphylococcus aureus
# Assay: Antibacterial activity against Staphylococcus aureus ATCC 29213 after 18 hrs by broth microdilution method
# Assay type: functional
# Conditions: ATCC 29213, 18 h
row,Compound,MIC
1,CCCc1c(Cl)c(O)cc2c1OC(=O)c1c(CCC)c(Cl)c(O)c(Cl)c1O2,1 µg/mL
2,CCCc1c(Cl)c(O)c(Cl)c2c1OC(=O)c1c(CCC)c(Cl)c(O)c(Cl)c1O2,4 µg/mL
3,CC1(C)S[C@@H]2[C@H](NC(=O)Cc3ccccc3)C(=O)N2[C@H]1C(=O)O [PENICILLIN G],0.125 µg/mL

# Tested on: Bacillus thuringiensis
# Assay: Antibacterial activity against Bacillus thuringiensis SCSIO BT01 after 18 hrs by broth microdilution method
# Assay type: functional
# Conditions: SCSIO BT01, 18 h
row,Compound,MIC
1,CCCc1c(Cl)c(O)cc2c1OC(=O)c1c(CCC)c(Cl)c(O)c(Cl)c1O2,1 µg/mL
2,CCCc1c(Cl)c(O)c(Cl)c2c1OC(=O)c1c(CCC)c(Cl)c(O)c(Cl)c1O2,2 µg/mL
3,CC1(C)S[C@@H]2[C@H](NC(=O)Cc3ccccc3)C(=O)N2[C@H]1C(=O)O [PENICILLIN G],128 µg/mL

# Tested on: Bacillus subtilis
# Assay: Antibacterial activity against Bacillus subtilis SCSIO BS01 after 18 hrs by broth microdilution method
# Assay type: functional
# Conditions: SCSIO BS01, 18 h
row,Compound,MIC
1,CCCc1c(Cl)c(O)cc2c1OC(=O)c1c(CCC)c(Cl)c(O)c(Cl)c1O2,0.5 µg/mL
2,CCCc1c(Cl)c(O)c(Cl)c2c1OC(=O)c1c(CCC)c(Cl)c(O)c(Cl)c1O2,2 µg/mL
3,CC1(C)S[C@@H]2[C@H](NC(=O)Cc3ccccc3)C(=O)N2[C@H]1C(=O)O [PENICILLIN G],0.125 µg/mL

# Tested on: Escherichia coli
# Assay: Antibacterial activity against Escherichia coli ATCC 25922 after 18 hrs by broth microdilution method
# Assay type: functional
# Conditions: ATCC 25922, 18 h
row,Compound,MIC
1,CCCc1c(Cl)c(O)cc2c1OC(=O)c1c(CCC)c(Cl)c(O)c(Cl)c1O2,> 128 µg/mL
2,CCCc1c(Cl)c(O)c(Cl)c2c1OC(=O)c1c(CCC)c(Cl)c(O)c(Cl)c1O2,> 128 µg/mL
3,CC1(C)S[C@@H]2[C@H](NC(=O)Cc3ccccc3)C(=O)N2[C@H]1C(=O)O [PENICILLIN G],> 128 µg/mL

# Tested on: Staphylococcus aureus
# Assay: Antibacterial activity against methicillin-sensitive Staphylococcus aureus ATCC 29213 after 18 hrs by broth microdilution method
# Assay type: functional, organism-based
# Conditions: ATCC 29213, 18 h, read-out: IC50
row,Compound,MIC
1,C[C@H]1COc2c(N3CCN(C)CC3)c(F)cc3c(=O)c(C(=O)O)cn1c23 [LEVOFLOXACIN],0.25 µM

# Tested on: Staphylococcus aureus
# Assay: Antibacterial activity against methicillin-resistant Staphylococcus aureus ATCC 33591 after 18 hrs by broth microdilution method
# Assay type: functional, organism-based
# Conditions: ATCC 33591, 18 h, read-out: IC50
row,Compound,MIC
1,C[C@H]1COc2c(N3CCN(C)CC3)c(F)cc3c(=O)c(C(=O)O)cn1c23 [LEVOFLOXACIN],0.25 µM

# Tested on: Staphylococcus aureus
# Assay: Antibacterial activity against methicillin-sensitive Staphylococcus aureus 15 after 18 hrs by broth microdilution method
# Assay type: functional, organism-based
# Conditions: Staphylococcus aureus, 15, 18 h; read-out: IC50
row,Compound,MIC
1,C[C@H]1COc2c(N3CCN(C)CC3)c(F)cc3c(=O)c(C(=O)O)cn1c23 [LEVOFLOXACIN],0.125 µM

# Tested on: Staphylococcus aureus
# Assay: Antibacterial activity against methicillin-sensitive Staphylococcus aureus 12-28 after 18 hrs by broth microdilution method
# Assay type: functional, organism-based
# Conditions: 12-28, 18 h
row,Compound,IC50
1,C[C@H]1COc2c(N3CCN(C)CC3)c(F)cc3c(=O)c(C(=O)O)cn1c23 [LEVOFLOXACIN],0.25 µM

# Tested on: Staphylococcus aureus
# Assay: Antibacterial activity against methicillin-resistant Staphylococcus aureus 12-33 after 18 hrs by broth microdilution method
# Assay type: functional, organism-based
# Conditions: 12-33, 18 h, read-out: IC50
row,Compound,MIC
1,C[C@H]1COc2c(N3CCN(C)CC3)c(F)cc3c(=O)c(C(=O)O)cn1c23 [LEVOFLOXACIN],64 µM

# Tested on: Staphylococcus epidermidis
# Assay: Antibacterial activity against methicillin-sensitive Staphylococcus epidermidis ATCC 12228 after 18 hrs by broth microdilution method
# Assay type: functional, organism-based
# Conditions: ATCC 12228, 18 h, read-out: IC50
row,Compound,MIC
1,C[C@H]1COc2c(N3CCN(C)CC3)c(F)cc3c(=O)c(C(=O)O)cn1c23 [LEVOFLOXACIN],0.25 µM

# Tested on: Staphylococcus epidermidis
# Assay: Antibacterial activity against methicillin-sensitive Staphylococcus epidermidis 12-6 after 18 hrs by broth microdilution method
# Assay type: functional, organism-based
# Conditions: 12-6, 18 h
row,Compound,IC50
1,C[C@H]1COc2c(N3CCN(C)CC3)c(F)cc3c(=O)c(C(=O)O)cn1c23 [LEVOFLOXACIN],0.25 µM

# Tested on: Staphylococcus epidermidis
# Assay: Antibacterial activity against methicillin-resistant Staphylococcus epidermidis 12-8 after 18 hrs by broth microdilution method
# Assay type: functional, organism-based
# Conditions: 12-8, 18 h, read-out: IC50
row,Compound,MIC
1,C[C@H]1COc2c(N3CCN(C)CC3)c(F)cc3c(=O)c(C(=O)O)cn1c23 [LEVOFLOXACIN],4 µM

# Tested on: Enterococcus faecalis
# Assay: Antibacterial activity against vancomycin-sensitive Enterococcus faecalis ATCC 29212 after 18 hrs by broth microdilution method
# Assay type: functional, organism-based
# Conditions: ATCC 29212, 18 h, read-out: IC50
row,Compound,MIC
1,C[C@H]1COc2c(N3CCN(C)CC3)c(F)cc3c(=O)c(C(=O)O)cn1c23 [LEVOFLOXACIN],1 µM

# Tested on: Enterococcus faecalis
# Assay: Antibacterial activity against vancomycin-resistant Enterococcus faecalis ATCC 51299 after 18 hrs by broth microdilution method
# Assay type: functional, organism-based
# Conditions: ATCC 51299, 18 h, read-out: IC50
row,Compound,MIC
1,C[C@H]1COc2c(N3CCN(C)CC3)c(F)cc3c(=O)c(C(=O)O)cn1c23 [LEVOFLOXACIN],1 µM

# Tested on: Enterococcus faecalis
# Assay: Antibacterial activity against vancomycin-sensitive Enterococcus faecalis 12-5 after 18 hrs by broth microdilution method
# Assay type: functional, organism-based
# Conditions: 12-5, 18 h, read-out: IC50
row,Compound,MIC
1,C[C@H]1COc2c(N3CCN(C)CC3)c(F)cc3c(=O)c(C(=O)O)cn1c23 [LEVOFLOXACIN],1 µM

# Tested on: Enterococcus faecalis
# Assay: Antibacterial activity against vancomycin-resistant Enterococcus faecalis 09-9 after 18 hrs by broth microdilution method
# Assay type: functional, organism-based
# Conditions: 09-9, 18 h, read-out: IC50
row,Compound,MIC
1,C[C@H]1COc2c(N3CCN(C)CC3)c(F)cc3c(=O)c(C(=O)O)cn1c23 [LEVOFLOXACIN],> 128 µM

# Tested on: Enterococcus faecium
# Assay: Antibacterial activity against vancomycin-resistant Enterococcus faecium ATCC 700221 after 18 hrs by broth microdilution method
# Assay type: functional, organism-based
# Conditions: ATCC 700221, 18 h, read-out: IC50
row,Compound,MIC
1,C[C@H]1COc2c(N3CCN(C)CC3)c(F)cc3c(=O)c(C(=O)O)cn1c23 [LEVOFLOXACIN],64 µM

# Tested on: Enterococcus faecium
# Assay: Antibacterial activity against vancomycin-resistant Enterococcus faecium 12-1 after 18 hrs by broth microdilution method
# Assay type: functional, organism-based
# Conditions: 12-1, 18 h, read-out: IC50
row,Compound,MIC
1,C[C@H]1COc2c(N3CCN(C)CC3)c(F)cc3c(=O)c(C(=O)O)cn1c23 [LEVOFLOXACIN],64 µM

# Tested on: Enterococcus faecium
# Assay: Antibacterial activity against vancomycin-sensitive Enterococcus faecium 12-3 after 18 hrs by broth microdilution method
# Assay type: functional, organism-based
# Conditions: 12-3, 18 h, read-out: IC50
row,Compound,MIC
1,C[C@H]1COc2c(N3CCN(C)CC3)c(F)cc3c(=O)c(C(=O)O)cn1c23 [LEVOFLOXACIN],64 µM

# Tested on: Escherichia coli
# Assay: Antibacterial activity against extended spectrum beta-lactamase-deficient Escherichia coli ATCC 25922 after 18 hrs by broth microdilution method
# Assay type: functional, organism-based
# Conditions: ATCC 25922, 18 h, read-out: IC50
row,Compound,MIC
1,C[C@H]1COc2c(N3CCN(C)CC3)c(F)cc3c(=O)c(C(=O)O)cn1c23 [LEVOFLOXACIN],≤ 0.03 µM

# Tested on: Escherichia coli
# Assay: Antibacterial activity against extended spectrum beta-lactamase-deficient Escherichia coli 1515 after 18 hrs by broth microdilution method
# Assay type: functional, organism-based
# Conditions: Escherichia coli, 1515, 18 h
row,Compound,IC50
1,C[C@H]1COc2c(N3CCN(C)CC3)c(F)cc3c(=O)c(C(=O)O)cn1c23 [LEVOFLOXACIN],0.125 µM

# Tested on: Escherichia coli
# Assay: Antibacterial activity against extended spectrum beta-lactamase-deficient Escherichia coli 12-14 after 18 hrs by broth microdilution method
# Assay type: functional, organism-based
# Conditions: 12-14, 18 h, read-out: IC50
row,Compound,MIC
1,C[C@H]1COc2c(N3CCN(C)CC3)c(F)cc3c(=O)c(C(=O)O)cn1c23 [LEVOFLOXACIN],1 µM

# Tested on: Escherichia coli
# Assay: Antibacterial activity against extended spectrum beta-lactamase producing Escherichia coli 12-15 after 18 hrs by broth microdilution method
# Assay type: functional, organism-based
# Conditions: 12-15, 18 h, read-out: IC50
row,Compound,MIC
1,C[C@H]1COc2c(N3CCN(C)CC3)c(F)cc3c(=O)c(C(=O)O)cn1c23 [LEVOFLOXACIN],32 µM

# Tested on: Klebsiella pneumoniae
# Assay: Antibacterial activity against extended spectrum beta-lactamase producing Klebsiella pneumoniae ATCC 700603 after 18 hrs by broth microdilution method
# Assay type: functional, organism-based
# Conditions: ATCC 700603, 18 h
row,Compound,IC50
1,C[C@H]1COc2c(N3CCN(C)CC3)c(F)cc3c(=O)c(C(=O)O)cn1c23 [LEVOFLOXACIN],1 µM

# Tested on: Klebsiella pneumoniae
# Assay: Antibacterial activity against extended spectrum beta-lactamase-deficient Klebsiella pneumoniae 7 after 18 hrs by broth microdilution method
# Assay type: functional, organism-based
# Conditions: Klebsiella pneumoniae, 7, 18 h; read-out: IC50
row,Compound,MIC
1,C[C@H]1COc2c(N3CCN(C)CC3)c(F)cc3c(=O)c(C(=O)O)cn1c23 [LEVOFLOXACIN],0.25 µM

# Tested on: Klebsiella pneumoniae
# Assay: Antibacterial activity against NDM-1 producing Klebsiella pneumoniae ATCC BAA-2146 after 18 hrs by broth microdilution method
# Assay type: functional, organism-based
# Conditions: ATCC BAA-2146, 18 h, read-out: IC50
row,Compound,MIC
1,C[C@H]1COc2c(N3CCN(C)CC3)c(F)cc3c(=O)c(C(=O)O)cn1c23 [LEVOFLOXACIN],> 128 µM

# Tested on: Klebsiella pneumoniae
# Assay: Antibacterial activity against extended spectrum beta-lactamase-deficient Klebsiella pneumoniae 12-4 after 18 hrs by broth microdilution method
# Assay type: functional, organism-based
# Conditions: 12-4, 18 h
row,Compound,IC50
1,C[C@H]1COc2c(N3CCN(C)CC3)c(F)cc3c(=O)c(C(=O)O)cn1c23 [LEVOFLOXACIN],0.125 µM

# Tested on: Klebsiella pneumoniae
# Assay: Antibacterial activity against extended spectrum beta-lactamase producing Klebsiella pneumoniae 12-8 after 18 hrs by broth microdilution method
# Assay type: functional, organism-based
# Conditions: 12-8, 18 h, read-out: IC50
row,Compound,MIC
1,C[C@H]1COc2c(N3CCN(C)CC3)c(F)cc3c(=O)c(C(=O)O)cn1c23 [LEVOFLOXACIN],16 µM
